From US20250302990A1, “ENHANCING NON-VIRAL DNA DELIVERY AND EXPRESSION” (Spark Therapeutics, Inc., priority 2022, published 2025)

How the values were obtained:
Wild type mice = test: Survival after hFIX DNA-LNP dosing, with or without oral JAK inhibitors (Example 3); format: in vivo, mouse; conditions: 30 minutes prior to and days 1, 2, 3 post 2.5 mpk hFIX DNA-LNP (bCKK-E12 LNP), followed out to 30 days, vs untreated
Experimental: FIG. 6 illustrates survival of WT mice dosed systemically with 2.5 mpk (50 μg) of human factor IX (hFIX) transgene-encoding plasmid DNA encapsulated in lipid nanoparticles; and either untreated or treated with ruxolitinib or baricitinib orally 30 minutes prior to, and on days 1, 2, and 3 post systemic dosing with hFIX transgene encoding plasmid DNA encapsulated in lipid nanoparticles.
Wild type mice were untreated, or treated (n=5 per group) with JAK inhibitors ruxolitinib or baricitinib orally 30 minutes prior to, and days 1, 2, and 3 post systemic dosing with 2.5 mpk (50 μg) of human factor IX (hFIX) transgene-encoding plasmid DNA encapsulated in lipid nanoparticles (DNA-LNP). The LNP used in the study was formulated with bCKK-E12. Survival of mice in each group was followed out to 30 days (FIG. 6).

Wild type C57BL/6 mice = test: Transgenic hFIX protein in blood plasma by ELISA one week post-DNA-LNP, anti-IFNAR and/or baricitinib (Example 4); format: in vivo, mouse; conditions: 2.5 mpk hFIX DNA-LNP (bCKK-E12) IV; anti-IFNAR 15 mpk IP 3 hours prior; baricitinib oral 90 minutes prior and daily days 1-6; one week post-dosing
Experimental: FIG. 7 illustrates FIX protein levels in blood plasma of mice not treated; or treated orally with baricitinib (“Bar”) 90 minutes prior to DNA-LNP dosing, and then daily on days 1-6 post-DNA-LNP dosing. Transgenic hFIX protein in blood plasma of surviving mice was measured by ELISA one-week post-DNA-LNP dosing.
Wild type C57BL/6 mice were untreated, or treated (n=5 per group) once IP with 15 mpk anti-mouse IFNAR blocking antibody (“anti-IFNAR”; clone MAR1-5A3, described in Dunn et al., Nat Immunol. 2005 July; 6(7):722-9) 3 hours prior to systemically (IV tail injections) dosing with 2.5 mpk (50 μg) of human factor IX (hFIX) transgene-encoding plasmid DNA encapsulated in lipid nanoparticles (DNA-LNP). The LNP used in the study was formulated with bCKK-E12. Mice were treated or not treated with the oral JAK inhibitor baricitinib (“Bar”) 90 minutes prior to DNA-LNP dosing, and then daily on days 1-6 post-DNA-LNP dosing. Transgenic hFIX protein in blood plasma of surviving mice was measured by ELISA one-week post-DNA-LNP dosing (FIG. 7).

Molecule	survival of mice dosed with DNA-LNP (Wild type mice)	DNA-LNP transgene efficacy (hFIX protein in blood plasma, ELISA) (Wild type C57BL/6 mice)
N#CC[C@H](C1CCCC1)n1cc(-c2[nH]cnc3nccc2-3)cn1 [Ruxolitinib]	dramatically improved survival	–
Baricitinib	dramatically improved survival	did not boost transgene efficacy
